Active and inactive are the calls of the source. No rule for the calls is given here.
System: CCRIS mutagenicity, Ames/micronucleus/aberration tests
Experiment: CCRIS mutagenicity studies

Measured: mutagenic call

Nc1ccnc2ccccc12
inactive: Test System: AMES SALMONELLA TYPHIMURIUM, Strain/Indicator: TA98, Metabolic Activation: NONE, Method: PREINCUBATION inactive; negative | Test System: AMES SALMONELLA TYPHIMURIUM, Strain/Indicator: TA98, Metabolic Activation: RAT, LIVER, S-9, KANECHLOR 500 OR PHENOBARBITAL AND BETA-NAPHTHOFLAVONE, Method: PREINCUBATION inactive; negative | Test System: AMES SALMONELLA TYPHIMURIUM, Strain/Indicator: TA100, Metabolic Activation: NONE, Method: PREINCUBATION inactive; negative | Test System: AMES SALMONELLA TYPHIMURIUM, Strain/Indicator: TA100, Metabolic Activation: RAT, LIVER, S-9, KANECHLOR 500 OR PHENOBARBITAL AND BETA-NAPHTHOFLAVONE, Method: PREINCUBATION inactive; negative

Cc1ccc(C2CO2)cc1C (stereo unspecified)
active: Test System: E. COLI, Strain/Indicator: WP2, Metabolic Activation: NONE, Method: STANDARD PLATE active; positive | Test System: E. COLI, Strain/Indicator: WP2 UVRA, Metabolic Activation: NONE, Method: STANDARD PLATE active; positive

Nc1ccc2[nH]c3ccccc3c2c1[N+](=O)[O-]
inactive: Test System: AMES SALMONELLA TYPHIMURIUM, Strain/Indicator: TA100, Metabolic Activation: RAT, LIVER, S-9, PHENOBARBITAL, Method: STANDARD PLATE inactive; negative
active: Test System: AMES SALMONELLA TYPHIMURIUM, Strain/Indicator: TA98, Metabolic Activation: NONE, Method: STANDARD PLATE active; positive | Test System: AMES SALMONELLA TYPHIMURIUM, Strain/Indicator: TA98, Metabolic Activation: RAT, LIVER, S-9, PHENOBARBITAL, Method: STANDARD PLATE active; positive | Test System: AMES SALMONELLA TYPHIMURIUM, Strain/Indicator: TA100, Metabolic Activation: NONE, Method: STANDARD PLATE active; positive | Test System: AMES SALMONELLA TYPHIMURIUM, Strain/Indicator: TA1537, Metabolic Activation: NONE, Method: STANDARD PLATE active; positive | Test System: AMES SALMONELLA TYPHIMURIUM, Strain/Indicator: TA1537, Metabolic Activation: RAT, LIVER, S-9, PHENOBARBITAL, Method: STANDARD PLATE active; positive | Test System: AMES SALMONELLA TYPHIMURIUM, Strain/Indicator: TA1538, Metabolic Activation: NONE, Method: STANDARD PLATE active; positive | Test System: AMES SALMONELLA TYPHIMURIUM, Strain/Indicator: TA1538, Metabolic Activation: RAT, LIVER, S-9, PHENOBARBITAL, Method: STANDARD PLATE active; positive | Test System: AMES SALMONELLA TYPHIMURIUM, Strain/Indicator: TA1977, Metabolic Activation: NONE, Method: STANDARD PLATE active; positive | Test System: AMES SALMONELLA TYPHIMURIUM, Strain/Indicator: TA1977, Metabolic Activation: RAT, LIVER, S-9, PHENOBARBITAL, Method: STANDARD PLATE active; positive
